Laboratory results: patent publication US12673944B2, “Compounds having inhibitory activity against glucosylceramide synthase or pharmaceutically acceptable salt thereof, processes for preparing the same, and pharmaceutical compositions comprising the same” (YUHAN CORPORATION, priority 2019, dated 2026)

Experiments:
[1] = molecular target: T1, glucosylceramide synthase (GCS) (Homo sapiens, UniProt Q16739); test: GCS enzyme inhibition assay (A549 cell lysate, NBD C6-ceramide, HPLC fluorescence); assay type: biochemical; details: inhibitory activity against GCS, 37° C., 90 minutes
T1 construct: The obtained supernatant was used; host or cells: A549 cells (lysate supernatant after sonication)
T1 sequence (Q16739 1-394): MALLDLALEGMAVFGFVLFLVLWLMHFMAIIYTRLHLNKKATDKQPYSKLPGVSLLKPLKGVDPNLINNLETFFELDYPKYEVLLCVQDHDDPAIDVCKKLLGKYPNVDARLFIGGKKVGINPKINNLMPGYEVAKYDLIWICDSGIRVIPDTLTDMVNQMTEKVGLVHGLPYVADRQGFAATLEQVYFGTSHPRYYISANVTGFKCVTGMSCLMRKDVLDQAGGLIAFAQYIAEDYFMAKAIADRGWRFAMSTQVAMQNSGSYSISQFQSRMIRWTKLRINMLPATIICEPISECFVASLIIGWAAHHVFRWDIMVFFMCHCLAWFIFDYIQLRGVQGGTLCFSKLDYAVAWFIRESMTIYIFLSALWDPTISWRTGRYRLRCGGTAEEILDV
Procedure, shortened: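 A549 cell lysate (50 mM HEPES pH 7.3) served as GCS source; reactions ran 90 min at 37° C, were stopped with chloroform/methanol and lipids extracted. Activity taken as GlcCer/(Cer+GlcCer) peak area, normalised between DMSO and ibiglustat controls.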

[2] = tested on: GM1 production in Jurkat cells; test: cells; assay type: cell-based; details: Homo sapiens, Jurkat, 72 h

Structure (SMILES) | IC50 [1] [nM] | IC50 [2] [nM]
Cc1ccc(-c2ccc3c(c2)OCC(C)(C)C3NC(=O)O[C@@H]2CN3CCC2CC3)c(F)n1 (stereo partly drawn) [Example 248, (S)-quinuclidin-3-yl (7-(2-fluoro-6-methylpyridin-3-yl)-3,3-dimethylchroman-4-yl)carbamate] | 0.86 | 29.6
CC1(C)COc2cc(-c3ccc4c(c3)OCO4)ccc2C1NC(=O)O[C@@H]1CN2CCC1CC2 (stereo partly drawn) [Example 249, (S)-quinuclidin-3-yl (7-(benzo[d][1,3]dioxol-5-yl)-3,3-dimethylchroman-4-yl)carbamate] | 0.39 | 4
CC1(C)COc2cc(-c3ccc(C4CC4)nc3)ccc2C1NC(=O)O[C@@H]1CN2CCC1CC2 (stereo partly drawn) [Example 250, (S)-quinuclidin-3-yl (7-(6-cyclopropylpyridin-3-yl)-3,3-dimethylchroman-4-yl)carbamate] | 0.35 | 5.4
CN(C)c1ccc(-c2ccc3c(c2)OCC(C)(C)C3NC(=O)O[C@@H]2CN3CCC2CC3)cn1 (stereo partly drawn) [Example 251, (S)-quinuclidin-3-yl (7-(6-(dimethylamino)pyridin-3-yl)-3,3-dimethylchroman-4-yl)carbamate] | 1.64 | 17.5
COc1ccc(F)cc1-c1ccc2c(c1)OCC(C)(C)C2NC(=O)O[C@@H]1CN2CCC1CC2 (stereo partly drawn) [Example 252, (S)-quinuclidin-3-yl (7-(5-fluoro-2-methoxyphenyl)-3,3-dimethylchroman-4-yl)carbamate] | 0.54 | 1.4
CCOc1ccc(-c2ccc3c(c2)OCC(C)(C)C3NC(=O)O[C@@H]2CN3CCC2CC3)cn1 (stereo partly drawn) [Example 253, (S)-quinuclidin-3-yl (7-(6-ethoxypyridin-3-yl)-3,3-dimethylchroman-4-yl)carbamate] | 0.76 | 6.4
COc1ncc(-c2ccc3c(c2)OCC(C)(C)C3NC(=O)O[C@@H]2CN3CCC2CC3)cc1C (stereo partly drawn) [Example 254, (S)-quinuclidin-3-yl (7-(6-methoxy-5-methylpyridin-3-yl)-3,3-dimethylchroman-4-yl)carbamate] | 1.7 | 17.4
COc1c(C)cc(-c2ccc3c(c2)OCC(C)(C)C3NC(=O)O[C@@H]2CN3CCC2CC3)cc1C (stereo partly drawn) [Example 255, (S)-quinuclidin-3-yl (7-(4-methoxy-3,5-dimethylphenyl)-3,3-dimethylchroman-4-yl)carbamate] | 1.2 | 5.1
CCCCc1ccc(-c2ccc3c(c2)OCC(C)(C)C3NC(=O)O[C@@H]2CN3CCC2CC3)cc1 (stereo partly drawn) [Example 256, (S)-quinuclidin-3-yl (7-(4-butylphenyl)-3,3-dimethylchroman-4-yl)carbamate] | 0.39 | 0.2
CC(C)Cc1ccc(-c2ccc3c(c2)OCC(C)(C)C3NC(=O)O[C@@H]2CN3CCC2CC3)cc1 (stereo partly drawn) [Example 257, (S)-quinuclidin-3-yl (7-(4-isobutylphenyl)-3,3-dimethylchroman-4-yl)carbamate] | 0.36 | 0.7
CC(C)Oc1ccc(-c2ccc3c(c2)OCC(C)(C)C3NC(=O)O[C@@H]2CN3CCC2CC3)cn1 (stereo partly drawn) [Example 258, (S)-quinuclidin-3-yl (7-(6-isopropoxypyridin-3-yl)-3,3-dimethylchroman-4-yl)carbamate] | 0.45 | 1
CC1(C)COc2cc(-c3ccc(-c4ccon4)cc3)ccc2C1NC(=O)O[C@@H]1CN2CCC1CC2 (stereo partly drawn) [Example 259, (S)-quinuclidin-3-yl (7-(4-(isoxazol-3-yl)phenyl)-3,3-dimethylchroman-4-yl)carbamate] | 1.14 | 6.9
CC(C)COc1ccc(-c2ccc3c(c2)OCC(C)(C)C3NC(=O)O[C@@H]2CN3CCC2CC3)cc1 (stereo partly drawn) [Example 260, (S)-quinuclidin-3-yl (7-(4-isobutoxyphenyl)-3,3-dimethylchroman-4-yl)carbamate] | 0.51 | 0.3
CC(C)Oc1ccc(-c2ccc3c(c2)OCC(C)(C)C3NC(=O)O[C@@H]2CN3CCC2CC3)cc1F (stereo partly drawn) [Example 261, (S)-quinuclidin-3-yl (7-(3-fluoro-4-isopropoxyphenyl)-3,3-dimethylchroman-4-yl)carbamate] | 0.65 | 2.6
CC1(C)COc2cc(-c3ccc(C(F)(F)F)cc3F)ccc2C1NC(=O)O[C@@H]1CN2CCC1CC2 (stereo partly drawn) [Example 262, (S)-quinuclidin-3-yl (7-(2-fluoro-4-(trifluoromethyl)phenyl)-3,3-dimethylchroman-4-yl)carbamate] | 0.52 | 3.7
Cc1cc(-c2ccc3c(c2)OCC(C)(C)C3NC(=O)O[C@@H]2CN3CCC2CC3)cc(C)c1OC(C)C (stereo partly drawn) [Example 263, (S)-quinuclidin-3-yl (7-(4-isopropoxy-3,5-dimethylphenyl)-3,3-dimethylchroman-4-yl)carbamate] | 1.44 | 4

Structure (SMILES) | IC50 [1] [nM] | IC50 [2] [nM]
CC1(C)COc2cc(-c3ccccc3)ccc2C1NC(=O)O[C@@H]1CN2CCC1CC2 (stereo partly drawn) [Example 264, (S)-quinuclidin-3-yl (3,3-dimethyl-7-phenylchroman-4-yl)carbamate] | 0.35 | 0.7
CC1(C)COc2cc(-c3cccnc3)ccc2C1NC(=O)O[C@@H]1CN2CCC1CC2 (stereo partly drawn) [Example 265, (S)-quinuclidin-3-yl (3,3-dimethyl-7-(pyridin-3-yl)chroman-4-yl)carbamate] | 2.03 | 38.7
CC1(C)COc2cc(-c3ccccn3)ccc2C1NC(=O)O[C@@H]1CN2CCC1CC2 (stereo partly drawn) [Example 266, (S)-quinuclidin-3-yl (3,3-dimethyl-7-(pyridin-2-yl)chroman-4-yl)carbamate] | 4.07 | 26.9
CC1(C)COc2cc(Cc3ccccc3)ccc2C1NC(=O)O[C@@H]1CN2CCC1CC2 (stereo partly drawn) [Example 267, (S)-quinuclidin-3-yl (7-benzyl-3,3-dimethylchroman-4-yl)carbamate] | 1.48 | 9.1
Cc1cccc(-c2ccc3c(c2)OCC(C)(C)C3NC(=O)O[C@@H]2CN3CCC2CC3)c1 (stereo partly drawn) [Example 268, (S)-quinuclidin-3-yl (3,3-dimethyl-7-(m-tolyl)chroman-4-yl)carbamate] | 0.62 | 1.4
Cc1ccc(-c2ccc3c(c2)OCC(C)(C)C3NC(=O)O[C@@H]2CN3CCC2CC3)cc1 (stereo partly drawn) [Example 269, (S)-quinuclidin-3-yl (3,3-dimethyl-7-(p-tolyl)chroman-4-yl)carbamate] | 0.66 | 1.9
Cc1ccccc1-c1ccc2c(c1)OCC(C)(C)C2NC(=O)O[C@@H]1CN2CCC1CC2 (stereo partly drawn) [Example 270, (S)-quinuclidin-3-yl (3,3-dimethyl-7-(o-tolyl)chroman-4-yl)carbamate] | 0.78 | 1
CC1(C)COc2cc(/C=C/c3ccsc3)ccc2C1NC(=O)O[C@@H]1CN2CCC1CC2 (stereo partly drawn) [Example 271, (S)-quinuclidin-3-yl (3,3-dimethyl-7-((E)-2-(thiophen-3-yl)vinyl)chroman-4-yl)carbamate] | 1.26 | 9
C=Cc1ccc(-c2ccc3c(c2)OCC(C)(C)C3NC(=O)O[C@@H]2CN3CCC2CC3)cc1 (stereo partly drawn) [Example 272, (S)-quinuclidin-3-yl (3,3-dimethyl-7-(4-vinylphenyl)chroman-4-yl)carbamate] | 0.89 | 4.4
CCc1ccc(-c2ccc3c(c2)OCC(C)(C)C3NC(=O)O[C@@H]2CN3CCC2CC3)cc1 (stereo partly drawn) [Example 273, (S)-quinuclidin-3-yl (7-(4-ethylphenyl)-3,3-dimethylchroman-4-yl)carbamate] | 0.46 | 2.9
C=Cc1ccccc1-c1ccc2c(c1)OCC(C)(C)C2NC(=O)O[C@@H]1CN2CCC1CC2 (stereo partly drawn) [Example 274, (S)-quinuclidin-3-yl (3,3-dimethyl-7-(2-vinylphenyl)chroman-4-yl)carbamate] | 0.58 | 1.7
CCOc1ccc(-c2ccc3c(c2)OCC(C)(C)C3NC(=O)O[C@@H]2CN3CCC2CC3)c(C)c1 (stereo partly drawn) [Example 275, (S)-quinuclidin-3-yl (7-(4-ethoxy-2-methylphenyl)-3,3-dimethylchroman-4-yl)carbamate] | 0.84 | 2.6
CC1(C)COc2cc(-c3ccc(OCc4ccccc4)cc3)ccc2C1NC(=O)O[C@@H]1CN2CCC1CC2 (stereo partly drawn) [Example 276, (S)-quinuclidin-3-yl (7-(4-(benzyloxy)phenyl)-3,3-dimethylchroman-4-yl)carbamate] | 0.54 | 1.3
CC1(C)COc2cc(-c3cccc(OCc4ccccc4)c3)ccc2C1NC(=O)O[C@@H]1CN2CCC1CC2 (stereo partly drawn) [Example 277, (S)-quinuclidin-3-yl (7-(3-(benzyloxy)phenyl)-3,3-dimethylchroman-4-yl)carbamate] | 0.65 | 0.9
CC1(C)COc2cc(-c3ccc(F)nc3F)ccc2C1NC(=O)O[C@@H]1CN2CCC1CC2 (stereo partly drawn) [Example 278, (S)-quinuclidin-3-yl (7-(2,6-difluoropyridin-3-yl)-3,3-dimethylchroman-4-yl)carbamate] | 2.19 | 12.4
C=CCc1ccccc1-c1ccc2c(c1)OCC(C)(C)C2NC(=O)O[C@@H]1CN2CCC1CC2 (stereo partly drawn) [Example 279, (S)-quinuclidin-3-yl (7-(2-allylphenyl)-3,3-dimethylchroman-4-yl)carbamate] | 0.73 | 6.2
